Reference: PMC6509188, “Enterococcus faecalis Encodes an Atypical Auxiliary Acyl Carrier Protein Required for Efficient Regulation of Fatty Acid Synthesis by Exogenous Fatty Acids” (mBio, 2019)

How the values were obtained:
Assay type in all cases: biochemical
AcpS = target: T1, AcpS (Enterococcus faecalis, UniProt Q820V0); assay: conversion of apo-ACP to holo-ACP, PAGE; settings: acceptor apo-AcpA or apo-AcpB of E. faecalis; Mg2+, Tris-HCl pH 8.0, 37 C
T1 construct: N-terminal hexahistidine tag, expressed from pZL311, nickel-chelate purified
T1 sequence (Q820V0 1-117): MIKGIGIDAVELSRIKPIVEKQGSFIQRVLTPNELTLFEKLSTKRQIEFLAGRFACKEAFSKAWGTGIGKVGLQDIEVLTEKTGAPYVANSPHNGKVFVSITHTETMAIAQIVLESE

AasS = target: T2, AasS (Vibrio harveyi, UniProt Q00IB3); assay: acyl-ACP synthesis, urea-PAGE; settings: acceptor holo-AcpA or holo-AcpB of E. faecalis; 2 mM ATP, 200 uM acid, 37 C
T2 construct: N-terminal hexahistidine tag, expressed from pYFJ84, nickel-chelate purified; used to prepare acyl-ACPs

PlsX = target: T3, PlsX (Enterococcus faecalis, UniProt Q82ZE8); assay: acyl transfer to holo-ACP, urea-PAGE; settings: acyl acceptor holo-AcpB of E. faecalis; 0.05 uM PlsX, 0.75 mM Mg2+, 0.5 mM DTT, 0.1 M HEPES pH 7.0, 37 C
T3 construct: N-terminal hexahistidine tag, expressed from pZL391 in E. coli, purified
T3 sequence (Q82ZE8 1-333): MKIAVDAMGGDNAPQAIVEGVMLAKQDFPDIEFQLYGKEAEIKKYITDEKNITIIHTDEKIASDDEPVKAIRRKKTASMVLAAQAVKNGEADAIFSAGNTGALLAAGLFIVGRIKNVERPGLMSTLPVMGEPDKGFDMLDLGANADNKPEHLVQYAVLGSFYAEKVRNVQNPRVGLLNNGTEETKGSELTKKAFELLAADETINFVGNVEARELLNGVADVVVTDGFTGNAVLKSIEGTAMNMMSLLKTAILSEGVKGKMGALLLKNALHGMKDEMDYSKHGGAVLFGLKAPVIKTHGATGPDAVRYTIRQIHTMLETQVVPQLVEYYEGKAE

T2 sequence (Q00IB3 entry or part of it): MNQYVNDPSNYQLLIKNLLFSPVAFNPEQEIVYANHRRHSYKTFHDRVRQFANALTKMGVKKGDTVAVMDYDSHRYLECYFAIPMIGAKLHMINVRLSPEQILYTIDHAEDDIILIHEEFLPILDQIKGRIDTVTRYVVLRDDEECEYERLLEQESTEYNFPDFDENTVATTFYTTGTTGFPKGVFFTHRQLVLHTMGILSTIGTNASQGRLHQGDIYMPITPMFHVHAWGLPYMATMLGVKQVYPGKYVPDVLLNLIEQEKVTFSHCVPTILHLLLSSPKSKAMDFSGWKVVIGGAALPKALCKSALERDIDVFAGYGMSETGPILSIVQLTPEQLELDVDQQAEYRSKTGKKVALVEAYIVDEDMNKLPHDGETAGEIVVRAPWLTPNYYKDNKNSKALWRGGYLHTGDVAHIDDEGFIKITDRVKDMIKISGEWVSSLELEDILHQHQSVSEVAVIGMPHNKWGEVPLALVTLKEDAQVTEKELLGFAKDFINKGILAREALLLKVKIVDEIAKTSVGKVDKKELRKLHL

**Q.** With `CC(C)(COP(=O)(O)OP(=O)(O)OC[C@H]1O[C@@H](n2cnc3c(N)ncnc32)[C@H](O)[C@@H]1OP(=O)(O)O)[C@@H](O)C(=O)NCCC(=O)NCCS` [CoA] as the molecule, how does the “conversion of apo-ACP to holo-ACP, PAGE” value (AcpS) read?
**A.** The value was “treated with E. faecalis AcpS and coenzyme A (CoA)”.

**Q.** For `CCCCCCC/C=C/C(=O)O` [trans-2-decenoic acid], which “acyl-ACP synthesis, urea-PAGE” value (AasS) is on record?
**A.** The value was “Incubation of the holo proteins with AasS, ATP, and trans-2-decenoic acid resulted in trans-2-decenoyl-AcpA”.

**Q.** How did the “acyl transfer to holo-ACP, urea-PAGE” value (PlsX) turn out when `CCCCCCCCCCCCCCCCCC(=O)OP(=O)(O)O` [stearoyl-phosphate] was run?
**A.** Its value is “AcpB was fully converted into acyl-AcpB when stearoyl-phosphate (C18:0-PO4) or oleyl-phosphate (C18:1-PO4)”.
